pIC50: −log10 of the molar value. “Also recorded” adds a separate entry of the source. Like-named read-outs stand apart in the source and are kept apart here.
Legend:
[1] = molecular target: NA of A/Sydney/5/97 (H3N2) (Influenza A virus, UniProt Q9DIC9); experiment: Neuraminidase inhibition assay (fluorimetric, MUNANA); assay type: biochemical, influenza A virus A/Sydney/5/97 (H3N2); details: for IC50: NA from A/Sydney/5/97 (H3N2), 37 °C, 40 min, pH 6.5, read-out: IC50, inhibition of NA, A/Sydney/5/97(H3N2) (converted)
[2] = test system: MCP-1 production in H1N1-infected A549 cells; assay type: cell-based, human
[3] = test system: IL-6 production in H1N1-infected A549 cells; assay type: cell-based, human

| SMILES | IC50 [1] [µM] | inhibition of MCP-1 expression induced by influenza H1N1 virus (in words) [2] | inhibition of IL-6 expression induced by influenza H1N1 virus (in words) [3] | pIC50 [1] |
| --- | --- | --- | --- | --- |
| O=C(Oc1cc(O)c2c(c1)OC(c1cc(O)c(O)c(O)c1)C(O)C2)c1cc(O)c(O)c(O)c1 (single isomer, unassigned; (+)) [Compound 3, (+)-3,5,3',4',5'-penta-hydroxyflavan-7-gallate] | > 87.3 | worst inhibition | weakest inhibition; also recorded: worst inhibition | – |
| CC1(C)O[C@@H]2Cc3c(O)cc(OC(=O)c4cc(O)c(O)c(O)c4)cc3O[C@@H]2c2cc(O)c(O)c(O)c21 [Compound 1, (2R,3R)-7-O-galloylplumbocatechin A] | 64.7 | inhibit MCP-1 expression best at the lowest concentrated dilution of 3 μg/mL; also recorded: best results | – | – |
| O=C(Oc1cc(O)c2c(c1)O[C@H](c1cc(O)c(O)c(O)c1)CC2)c1cc(O)c(O)c(O)c1 [Compound 2, (−)-5,3',4',5'-tetrahydroxyflavan-7-gallate] | > 90.4 | inhibit MCP-1 expression best at the lowest concentrated dilution of 3 μg/mL | best inhibitory effect | – |
| O=C(Oc1cc(O)c2c(c1)O[C@H](c1cc(O)c(OC(=O)c3cc(O)c(O)c(O)c3)c(O)c1)CC2)c1cc(O)c(O)c(O)c1 [Compound 4, (−)-7,4'-di-O-galloyltricetiflavan] | > 67.3 | – | – | – |
| CC(=O)N[C@H]1[C@H]([C@H](O)[C@H](O)CO)OC(C(=O)O)=C[C@@H]1N=C(N)N [zanamivir, reference compound] | – | – | – | 9.20 |

Reference: publication PMC6271231 (Molecules, 2014)
